Data published in patent publication US6518243B1, “Desleucyl glycopeptide antibiotics and methods of making same” (Trustees of Princeton University, priority 1999, dated 2003).

Assays:
[1] = tested on: S. Aureus ATCC 33591; assay: MIC determination in BHI media, OD600; type: cell-based; settings: BHI + 0.1% casamino acids, 18 hours at 37° C., ≧90% OD600 inhibition
Summary of the method: (§1)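 Turbidity after 18 hours at 37° C defined the MIC. Cultures in logarithmic growth were set to approximately 5×10^5 CFU/ml and challenged with DMSO-diluted compound series.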

[2] = tested on: E. faecium ATCC 49624; assay: MIC determination in BHI media, OD600; type: cell-based; settings: BHI + 0.1% casamino acids, 18 hours at 37° C., ≧90% OD600 inhibition
Summary of the method: as §1

[3] = tested on: E. Faecalis CL 4877; assay: MIC determination in BHI media, OD600; type: cell-based; settings: BHI + 0.1% casamino acids, 18 hours at 37° C., ≧90% OD600 inhibition
Summary of the method: as §1

[4] = tested on: S aureus ATCC 29213; assay: MIC determination in BHI media, OD600; type: cell-based; settings: BHI + 0.1% casamino acids, 18 hours at 37° C., ≧90% OD600 inhibition
Summary of the method: as §1

[5] = tested on: E. faceium (ATCC 49624); assay: Zone of inhibition screen, 96 well agar array format;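 note: score 3 means fourfold and score 4 sixteenfold the reference zone size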; type: cell-based, E. faecium; settings: zone of inhibition relative to 1 mg/ml stock solution of p-chlorobiphenylvancomycin
Summary of the method: (§2)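 Read-out is antibacterial activity on agar laid out as a 96-well array; every compound went through all strains of the panel.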

[6] = tested on: S. epidermidis (ATCC 12228); assay: as above; type: cell-based; set-up: scale not given here; settings: zone of inhibition relative to 1 mg/ml stock solution of p-chlorobiphenylvancomycin
Summary of the method: as §2

[7] = tested on: S. aureus (ATCC 29213); assay: as above; type: cell-based; set-up: scale not given here; settings: zone of inhibition relative to 1 mg/ml stock solution of p-chlorobiphenylvancomycin
Summary of the method: as §2

[8] = tested on: E. faecalis (CL 4877); assay: as above; type: cell-based; set-up: scale not given here; settings: zone of inhibition relative to 1 mg/ml stock solution of p-chlorobiphenylvancomycin
Summary of the method: as §2

[9] = tested on: E. faecalis ATCC 29212; assay: MIC determination in BHI media, OD600; type: cell-based; settings: BHI + 0.1% casamino acids, 18 hours at 37° C., ≧90% OD600 inhibition
Summary of the method: as §1

[10] = tested on: E. faecium CL 4931; assay: MIC determination in BHI media, OD600; type: cell-based; settings: BHI + 0.1% casamino acids, 18 hours at 37° C., ≧90% OD600 inhibition
Summary of the method: as §1

Row | MIC S. aureus ATCC 33591 [1] [µg/mL] | MIC E. faecium ATCC 49624 [2] [µg/mL] | MIC E. faecalis CL 4877 [3] [µg/mL] | MIC S. aureus ATCC 29213 [4] [µg/mL] | MIC E. faecalis ATCC 29212 [9] [µg/mL] | MIC E. faecium CL 4931 [10] [µg/mL] | SMILES | zone score, E. faecium ATCC 49624 [5] | zone score, S. epidermidis ATCC 12228 [6] | zone score, S. aureus ATCC 29213 [7] | zone score, E. faecalis CL 4877 [8]
1 |  | 0.78 | 25 | 0.78 |  |  | CC1OC(OC2C(Oc3c4cc5cc3Oc3ccc(cc3Cl)C(O)C3NC(=O)C(NC(=O)C5NC(=O)C(CC(N)=O)NC(=O)C(NC(=O)C(N)CO)C(O)c5ccc(c(Cl)c5)O4)c4ccc(O)c(c4)-c4c(O)cc(O)cc4C(C(=O)O)NC3=O)OC(CO)C(O)C2O)CC(C)(NCc2ccc(-c3ccc(Cl)cc3)cc2)C1O (stereo not shown) [Compound 88] | 2 | 2 | 2 | 2
2 | 0.78 | 0.78 | 25 | 0.78 |  |  | CCCC(N)C(=O)NC1C(=O)NC(CC(N)=O)C(=O)NC2C(=O)NC3C(=O)NC(C(=O)NC(C(=O)O)c4cc(O)cc(O)c4-c4cc3ccc4O)C(O)c3ccc(c(Cl)c3)Oc3cc2cc(c3OC2OC(CO)C(O)C(O)C2OC2CC(C)(NCc3ccc(-c4ccc(Cl)cc4)cc3)C(O)C(C)O2)Oc2ccc(cc2Cl)C1O (stereo not shown) [Compound 341] |  |  |  | 
3 | 0.25 | 0.12 |  | 0.25 | 0.78 | 25 | CC(C)OCC(N)C(=O)NC1C(=O)NC(CC(N)=O)C(=O)NC2C(=O)NC3C(=O)NC(C(=O)NC(C(=O)O)c4cc(O)cc(O)c4-c4cc3ccc4O)C(O)c3ccc(c(Cl)c3)Oc3cc2cc(c3OC2OC(CO)C(O)C(O)C2OC2CC(C)(NCc3ccc(-c4ccc(Cl)cc4)cc3)C(O)C(C)O2)Oc2ccc(cc2Cl)C1O (stereo not shown) [Compound 528] |  |  |  | 
4 | 0.25 | 0.12 |  | 0.25 | 0.78 | 25 | CC(C)OCC(N)C(=O)NC1C(=O)NC(CC(N)=O)C(=O)NC2C(=O)NC3C(=O)NC(C(=O)NC(C(=O)O)c4cc(O)cc(O)c4-c4cc3ccc4O)C(O)c3ccc(c(Cl)c3)Oc3cc2cc(c3OC2OC(CO)C(O)C(O)C2OC2CC(C)(NCc3ccc(-c4ccc(Cl)cc4)cc3)C(O)C(C)O2)Oc2ccc(cc2Cl)C1O (stereo not shown) [Compound 529] |  |  |  | 
5 |  |  | 25 |  |  | 25 | CC1OC(OC2C(Oc3c4cc5cc3Oc3ccc(cc3Cl)C(O)C3NC(=O)C(NC(=O)C5NC(=O)C(CC(N)=O)NC(=O)C(NC(=O)C(N)CSC(C)(C)C)C(O)c5ccc(c(Cl)c5)O4)c4ccc(O)c(c4)-c4c(O)cc(O)cc4C(C(=O)O)NC3=O)OC(CO)C(O)C2O)CC(C)(NCc2ccc(-c3ccc(Cl)cc3)cc2)C1O (stereo not shown) [Compound 333] |  |  |  | 
6 |  |  | 25 |  |  | 25 | C[C@H](O)C(=O)N[C@H]1C(=O)N[C@@H](CC(N)=O)C(=O)N[C@H]2C(=O)N[C@H]3C(=O)N[C@H](C(=O)N[C@@H](C(=O)O)c4cc(O)cc(O)c4-c4cc3ccc4O)[C@H](O)c3ccc(c(Cl)c3)Oc3cc2cc(c3O[C@@H]2O[C@H](CO)[C@@H](O)[C@H](O)[C@H]2O[C@@H]2C[C@@](C)(NCc3ccc(-c4ccc(Cl)cc4)cc3)[C@@H](O)[C@@H](C)O2)Oc2ccc(cc2Cl)[C@H]1O [Compound 21] |  | 2 | 2 | 2

Second part, the compound before the results:

Row | SMILES | MIC S. aureus ATCC 33591 [1] [µg/mL] | MIC E. faecium ATCC 49624 [2] [µg/mL] | MIC E. faecalis CL 4877 [3] [µg/mL] | MIC S. aureus ATCC 29213 [4] [µg/mL] | MIC E. faecalis ATCC 29212 [9] [µg/mL] | MIC E. faecium CL 4931 [10] [µg/mL] | zone score, E. faecium ATCC 49624 [5] | zone score, S. epidermidis ATCC 12228 [6] | zone score, S. aureus ATCC 29213 [7] | zone score, E. faecalis CL 4877 [8]
7 | CC1OC(OC2C(Oc3c4cc5cc3Oc3ccc(cc3Cl)C(O)C3NC(=O)C(NC(=O)C5NC(=O)C(CC(N)=O)NC(=O)C(NC(=O)C(N)COCc5ccccc5)C(O)c5ccc(c(Cl)c5)O4)c4ccc(O)c(c4)-c4c(O)cc(O)cc4C(C(=O)O)NC3=O)OC(CO)C(O)C2O)CC(C)(NCc2ccc(-c3ccc(Cl)cc3)cc2)C1O (stereo not shown) [Compound 338] | 0.39 | 0.25 | 25 |  |  |  |  |  |  | 
8 | CNC(C(=O)NC1C(=O)NC(CC(N)=O)C(=O)NC2C(=O)NC3C(=O)NC(C(=O)NC(C(=O)O)c4cc(O)cc(O)c4-c4cc3ccc4O)C(O)c3ccc(c(Cl)c3)Oc3cc2cc(c3OC2OC(CO)C(O)C(O)C2OC2CC(C)(NCc3ccc(-c4ccc(Cl)cc4)cc3)C(O)C(C)O2)Oc2ccc(cc2Cl)C1O)C(C)C (stereo not shown) [Compound 340] | 0.39 | 0.39 | 25 | 0.39 |  |  |  |  |  | 
9 | CC1OC(OC2C(Oc3c4cc5cc3Oc3ccc(cc3Cl)C(O)C3NC(=O)C(NC(=O)C5NC(=O)C(CC(N)=O)NC(=O)C(NC(=O)C(N)CSC(C)(C)C)C(O)c5ccc(c(Cl)c5)O4)c4ccc(O)c(c4)-c4c(O)cc(O)cc4C(C(=O)O)NC3=O)OC(CO)C(O)C2O)CC(C)(NCc2ccc(-c3ccc(Cl)cc3)cc2)C1O (stereo not shown) [Compound 334] | 0.25 | 0.12 |  | 0.25 | 0.78 | 25 |  |  |  | 
10 | CC1OC(OC2C(Oc3c4cc5cc3Oc3ccc(cc3Cl)C(O)C3NC(=O)C(NC(=O)C5NC(=O)C(CC(N)=O)NC(=O)C(NC(=O)C(N)CCCNC(=O)c5cnccn5)C(O)c5ccc(c(Cl)c5)O4)c4ccc(O)c(c4)-c4c(O)cc(O)cc4C(C(=O)O)NC3=O)OC(CO)C(O)C2O)CC(C)(NCc2ccc(-c3ccc(Cl)cc3)cc2)C1O (stereo not shown) [Compound 83] | 0.78 | 0.25 |  | 0.39 | 0.78 | 25 | 2 |  | 2 | 
11 | CN[C@H](CC(C)C)C(=O)N[C@H]1C(=O)N[C@@H](CC(N)=O)C(=O)N[C@H]2C(=O)N[C@H]3C(=O)N[C@H](C(=O)N[C@@H](C(=O)O)c4cc(O)cc(O)c4-c4cc3ccc4O)[C@H](O)c3ccc(c(Cl)c3)Oc3cc2cc(c3O[C@@H]2O[C@H](CI)[C@@H](O)[C@H](O)[C@H]2O[C@@H]2C[C@@](C)(NCc3ccc(-c4ccc(Cl)cc4)cc3)[C@@H](O)[C@@H](C)O2)Oc2ccc(cc2Cl)[C@H]1O [Compound 519] |  | 0.78 | > 25 |  |  | > 25 |  |  |  | 
12 | CC1OC(OC2C(Oc3c4cc5cc3Oc3ccc(cc3Cl)C(O)C3NC(=O)C(NC(=O)C5NC(=O)C(CC(N)=O)NC(=O)C(NC(=O)C(N)Cc5c[nH]cn5)C(O)c5ccc(c(Cl)c5)O4)c4ccc(O)c(c4)-c4c(O)cc(O)cc4C(C(=O)O)NC3=O)OC(CO)C(O)C2O)CC(C)(NCc2ccc(-c3ccc(Cl)cc3)cc2)C1O (stereo not shown) [Compound 554] | 0.78 | 0.39 | 25 |  |  |  |  |  |  | 
13 | CC1OC(OC2C(Oc3c4cc5cc3Oc3ccc(cc3Cl)C(O)C3NC(=O)C(NC(=O)C5NC(=O)C(CC(N)=O)NC(=O)C(NC(=O)C(N)Cc5ccc(O)c([N+](=O)[O-])c5)C(O)c5ccc(c(Cl)c5)O4)c4ccc(O)c(c4)-c4c(O)cc(O)cc4C(C(=O)O)NC3=O)OC(CO)C(O)C2O)CC(C)(NCc2ccc(-c3ccc(Cl)cc3)cc2)C1O (stereo not shown) [Compound 557] |  | 0.39 | 25 |  |  | 25 |  |  |  | 
14 | CNC(COC(C)(C)C)C(=O)NC1C(=O)NC(CC(N)=O)C(=O)NC2C(=O)NC3C(=O)NC(C(=O)NC(C(=O)O)c4cc(O)cc(O)c4-c4cc3ccc4O)C(O)c3ccc(c(Cl)c3)Oc3cc2cc(c3OC2OC(CO)C(O)C(O)C2OC2CC(C)(NCc3ccc(-c4ccc(Cl)cc4)cc3)C(O)C(C)O2)Oc2ccc(cc2Cl)C1O (stereo not shown) [Compound 526] | 0.39 | 0.25 |  | 0.39 | 0.78 | 25 |  |  |  | 
